From US11214594B2, “Antimicrobial peptide having synergistic antibacterial effect with antibiotics on multidrug resistant bacteria, and use thereof” (priority 2016, dated 2022)
In brackets after ≈: the same amount, converted by molar mass. Read-outs that look alike come from different tables or passages of the source. Where a SMILES comes first, the peptide text is derived from it.

Tests used:
MDRAB 12036 = assay type: cell-based, Acinetobacter baumannii
Summary of the method: (§1)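 Peptides were serially diluted twofold in Mueller-Hinton medium and combined 1:1 with bacterial suspensions prepared at 2×10^6 CFU. Readout was the minimal inhibitory concentration, i.e. the lowest concentration with no growth.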

S. epidermidis = experiment: microbe, parasite or virus in culture; assay type: cell-based, Staphylococcus epidermidis
Summary of the method: as §1

P. aeruginosa = experiment: microbe, parasite or virus in culture; assay type: cell-based, Pseudomonas aeruginosa
Summary of the method: as §1

MDREC 1229 [1] = experiment: MIC of antibiotic during combined treatment with antimicrobial peptide; assay type: cell-based, Escherichia coli
Summary of the method: (§2)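 Broth microdilution in MH medium; strains were diluted to 2×10^6 CFU per ml before plating. Peptide was serially diluted stepwise at 2:1 starting from its MIC, and MH-diluted antibiotic was then added to determine MIC. The reversed arrangement was also tested.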

MDRST 8007 = experiment: Minimal inhibitory concentration (MIC), single agent; assay type: cell-based, Salmonella typhimurium; details: agent alone
Summary of the method: as §1

A. baumannii [2] = experiment: MIC of antimicrobial peptide during combined treatment with antibiotic; assay type: cell-based, Acinetobacter baumannii
Summary of the method: as §2

MDRAB 12035 [3] = experiment: as above; assay type: cell-based, Acinetobacter baumannii
Summary of the method: as §2

MRSA 3114 = assay type: cell-based, Staphylococcus aureus; details: 3114
Summary of the method: as §1

MRSA 3126 = assay type: cell-based, Staphylococcus aureus; details: 3126
Summary of the method: as §1

MDREC 1238 = assay type: cell-based, Escherichia coli
Summary of the method: as §1

A. baumannii [4] = experiment: microbe, parasite or virus in culture; assay type: cell-based, Acinetobacter baumannii
Summary of the method: as §1

MDRAB 12035 [5] = experiment: microbe, parasite or virus in culture; assay type: cell-based, Acinetobacter baumannii
Summary of the method: as §1

MDRPA 2002 = assay type: cell-based, Pseudomonas aeruginosa
Summary of the method: as §1

MDRPA 2003 = assay type: cell-based, Pseudomonas aeruginosa
Summary of the method: as §1

MDRAB 12035 [6] = experiment: MIC of antibiotic during combined treatment with antimicrobial peptide; assay type: cell-based, Acinetobacter baumannii
Summary of the method: as §2

E. coli = assay type: cell-based, Escherichia coli; details: E. coli
Summary of the method: as §2

MDREC 1229 [7] = assay type: cell-based, Escherichia coli
Summary of the method: as §2

S. aureus = experiment: microbe, parasite or virus in culture; assay type: cell-based, Staphylococcus aureus
Summary of the method: as §1

B. subtilis = experiment: microbe, parasite or virus in culture; assay type: cell-based, Bacillus subtilis
Summary of the method: as §1

S. typhimurium = experiment: microbe, parasite or virus in culture; assay type: cell-based, Salmonella typhimurium
Summary of the method: as §1

[8] = peptide treatment concentration 1 μg/ml
[9] = peptide treatment concentration 2 μg/ml
[10] = peptide treatment concentration 4 μg/ml
[11] = peptide treatment concentration 6 μg/ml
[12] = peptide treatment concentration 8 μg/ml
[13] = peptide treatment concentration 16 μg/ml
[14] = peptide treatment concentration 32 μg/ml
[15] = peptide treatment concentration 64 μg/ml
[16] = erythromycin 4 μg/ml (Conc./MIC 1/8)
[17] = erythromycin 8 μg/ml (Conc./MIC 1/4)
[18] = erythromycin 16 μg/ml (Conc./MIC 1/2)
[19] = erythromycin 32 μg/ml (Conc./MIC 1)
[20] = vancomycin 512 μg/ml (Conc./MIC 1/2)
[21] = vancomycin 1024 μg/ml (Conc./MIC 1)
[22] = with Erythromycin […] (Conc./MIC 1)

## CC[C@H](C)[C@H](NC(=O)[C@H](CCCCN)NC(=O)[C@H](Cc1c[nH]c2ccccc12)NC(=O)[C@@H](N)CCCNC(=N)N)C(=O)N[C@@H](Cc1ccccc1)C(=O)N[C@@H](CCCCN)C(=O)N[C@@H](CCCCN)C(=O)N[C@H](C(=O)N1CCC[C@H]1C(=O)N[C@@H](CCCCN)C(=O)N[C@@H](Cc1ccccc1)C(=O)N[C@@H](CC(C)C)C(=O)N[C@@H](Cc1c[nH]cn1)C(=O)N[C@@H](CO)C(=O)N[C@@H](C)C(=O)N[C@@H](CCCCN)C(=O)N[C@@H](CCCCN)C(=O)N[C@@H](Cc1c[nH]c2ccccc12)C(N)=O)[C@@H](C)CC [PapMA-2, RWK IFK KIP KFL HSA KKW-NH2] (H-RWKIFKKIPKFLHSAKKW-NH2; N-terminus assumed)
MDRAB 12036
  Minimal inhibitory concentration MIC: 16 µg/mL (≈ 6.83 µM)
S. epidermidis
  Minimal inhibitory concentration MIC: >128 µg/mL
P. aeruginosa
  Minimal inhibitory concentration MIC: 16 µg/mL (≈ 6.83 µM)
MDREC 1229 [1]; [8]
  Antibiotic MIC, Erythromycin: 64 µg/mL
  Antibiotic MIC, Linezolid: >128 µg/mL
  Antibiotic MIC, Vancomycin: >128 µg/mL
MDREC 1229 [1]; [9]
  Antibiotic MIC, Erythromycin: 32 µg/mL
  Antibiotic MIC, Linezolid: 64 µg/mL
  Antibiotic MIC, Vancomycin: >128 µg/mL
MDREC 1229 [1]; [10]
  Antibiotic MIC, Erythromycin: 16 µg/mL
  Antibiotic MIC, Linezolid: 32 µg/mL
  Antibiotic MIC, Vancomycin: 128 µg/mL
MDREC 1229 [1]; [11]
  Antibiotic MIC, Erythromycin: 8 µg/mL
  Antibiotic MIC, Linezolid: 32 µg/mL
  Antibiotic MIC, Vancomycin: 128 µg/mL
MDREC 1229 [1]; [12]
  Antibiotic MIC, Erythromycin: 2 µg/mL
  Antibiotic MIC, Linezolid: 16 µg/mL
  Antibiotic MIC, Vancomycin: 64 µg/mL
MDREC 1229 [1]; [13]
  Antibiotic MIC, Erythromycin: 0.5 µg/mL
  Antibiotic MIC, Linezolid: 8 µg/mL
  Antibiotic MIC, Vancomycin: 16 µg/mL
MDREC 1229 [1]; [14]
  Antibiotic MIC, Erythromycin: 0.125 µg/mL
  Antibiotic MIC, Linezolid: 4 µg/mL
  Antibiotic MIC, Vancomycin: 8 µg/mL
MDREC 1229 [1]; [15]
  Antibiotic MIC, Erythromycin: 0 µg/mL
  Antibiotic MIC, Linezolid: 0 µg/mL
  Antibiotic MIC, Vancomycin: 0 µg/mL
MDRST 8007
  Minimal inhibitory concentration MIC: 32 µg/mL (≈ 13.7 µM)
A. baumannii [2]; [16]
  Peptide MIC during treatment with antibiotic: 4 µg/mL
A. baumannii [2]; [17]
  Peptide MIC during treatment with antibiotic: 4 µg/mL
A. baumannii [2]; [18]
  Peptide MIC during treatment with antibiotic: 1 µg/mL
A. baumannii [2]; [19]
  Peptide MIC during treatment with antibiotic: 0 µg/mL
A. baumannii [2]; linezolid 32 μg/ml (Conc./MIC 1/8)
  Peptide MIC during treatment with antibiotic: 4 µg/mL
A. baumannii [2]; linezolid 64 μg/ml (Conc./MIC 1/4)
  Peptide MIC during treatment with antibiotic: 4 µg/mL
A. baumannii [2]; linezolid […] (Conc./MIC 1)
  Peptide MIC during treatment with antibiotic: 0 µg/mL
A. baumannii [2]; linezolid […] (Conc./MIC 1/2)
  Peptide MIC during treatment with antibiotic: 0.5 µg/mL
A. baumannii [2]; [20]
  Peptide MIC during treatment with antibiotic: 0.25 µg/mL
A. baumannii [2]; [21]
  Peptide MIC during treatment with antibiotic: 0 µg/mL
A. baumannii [2]; vancomycin […] (Conc./MIC 1/4)
  Peptide MIC during treatment with antibiotic: 0.5 µg/mL
A. baumannii [2]; vancomycin […] (Conc./MIC 1/8)
  Peptide MIC during treatment with antibiotic: 2 µg/mL
MDRAB 12035 [3]; [16]
  Peptide MIC during treatment with erythromycin: 4 µg/mL
MDRAB 12035 [3]; [17]
  Peptide MIC during treatment with erythromycin: 4 µg/mL
MDRAB 12035 [3]; [18]
  Peptide MIC during treatment with erythromycin: 2 µg/mL
MDRAB 12035 [3]; [19]
  Peptide MIC during treatment with erythromycin: 0 µg/mL
MDRAB 12035 [3]; linezolid 64 μg/ml (Conc./MIC 1/8)
  Peptide MIC during treatment with linezolid: 4 µg/mL
MDRAB 12035 [3]; linezolid 512 μg/ml (Conc./MIC 1)
  Peptide MIC during treatment with linezolid: 0 µg/mL
MDRAB 12035 [3]; linezolid […] (Conc./MIC 1/2)
  Peptide MIC during treatment with linezolid: 1 µg/mL
MDRAB 12035 [3]; linezolid […] (Conc./MIC 1/4)
  Peptide MIC during treatment with linezolid: 2 µg/mL
MDRAB 12035 [3]; [20]
  Peptide MIC during treatment with vancomycin: 1 µg/mL
MDRAB 12035 [3]; [21]
  Peptide MIC during treatment with vancomycin: 0.25 µg/mL
MDRAB 12035 [3]; vancomycin […] (Conc./MIC 1/4)
  Peptide MIC during treatment with vancomycin: 2 µg/mL
MDRAB 12035 [3]; vancomycin […] (Conc./MIC 1/8)
  Peptide MIC during treatment with vancomycin: 4 µg/mL
MRSA 3114
  Minimal inhibitory concentration MIC: >128 µg/mL
MRSA 3126
  Minimal inhibitory concentration MIC: >128 µg/mL
MDREC 1238
  Minimal inhibitory concentration MIC: 64 µg/mL (≈ 27.3 µM)
A. baumannii [4]
  Minimal inhibitory concentration MIC: 16 µg/mL (≈ 6.83 µM)
  Peptide MIC, peptide alone: 16 µg/mL
A. baumannii [4]; A. baumannii and antibiotic-resistant strains thereof
  Antibacterial activity relative to PapMA-1: 4 times
MDRAB 12035 [5]
  Minimal inhibitory concentration MIC: 16 µg/mL (≈ 6.83 µM)
  Peptide MIC, peptide alone: 16 µg/mL
MDRPA 2002
  Minimal inhibitory concentration MIC: 16 µg/mL (≈ 6.83 µM)
MDRPA 2003
  Minimal inhibitory concentration MIC: 16 µg/mL (≈ 6.83 µM)
MDRAB 12035 [6]; [8]
  Erythromycin MIC during combined treatment with peptide: 32 µg/mL
  Linezolid MIC during combined treatment with peptide: >128 µg/mL
  Vancomycin MIC during combined treatment with peptide: >128 µg/mL
MDRAB 12035 [6]; [9]
  Erythromycin MIC during combined treatment with peptide: 16 µg/mL
  Linezolid MIC during combined treatment with peptide: 64 µg/mL
  Vancomycin MIC during combined treatment with peptide: >128 µg/mL
MDRAB 12035 [6]; [10]
  Erythromycin MIC during combined treatment with peptide: 4 µg/mL
  Linezolid MIC during combined treatment with peptide: 32 µg/mL
  Vancomycin MIC during combined treatment with peptide: 128 µg/mL
MDRAB 12035 [6]; [11]
  Erythromycin MIC during combined treatment with peptide: 2 µg/mL
  Linezolid MIC during combined treatment with peptide: 32 µg/mL
  Vancomycin MIC during combined treatment with peptide: 32 µg/mL
MDRAB 12035 [6]; [12]
  Erythromycin MIC during combined treatment with peptide: 0.25 µg/mL
  Linezolid MIC during combined treatment with peptide: 8 µg/mL
  Vancomycin MIC during combined treatment with peptide: 16 µg/mL
MDRAB 12035 [6]; [13]
  Erythromycin MIC during combined treatment with peptide: 0 µg/mL
  Linezolid MIC during combined treatment with peptide: 0 µg/mL
  Vancomycin MIC during combined treatment with peptide: 0 µg/mL
MDRAB 12035 [6]; [14]
  Erythromycin MIC during combined treatment with peptide: 0 µg/mL
  Linezolid MIC during combined treatment with peptide: 0 µg/mL
  Vancomycin MIC during combined treatment with peptide: 0 µg/mL
MDRAB 12035 [6]; [15]
  Erythromycin MIC during combined treatment with peptide: 0 µg/mL
  Linezolid MIC during combined treatment with peptide: 0 µg/mL
  Vancomycin MIC during combined treatment with peptide: 0 µg/mL
E. coli; [22]
  Peptide MIC: 0 µg/mL
E. coli; with Linezolid […] (Conc./MIC 1)
  Peptide MIC: 0 µg/mL
E. coli; with Vancomycin 1024 μg/ml (Conc./MIC 1)
  Peptide MIC: 0 µg/mL
MDREC 1229 [7]; [22]
  Peptide MIC: 0 µg/mL
MDREC 1229 [7]; with Linezolid 512 μg/ml (Conc./MIC 1)
  Peptide MIC: 0 µg/mL
S. aureus
  Minimal inhibitory concentration MIC: >128 µg/mL
B. subtilis
  Minimal inhibitory concentration MIC: >128 µg/mL
S. typhimurium
  Minimal inhibitory concentration MIC: 32 µg/mL (≈ 13.7 µM)
